BindingDB's records for doi:10.7270/Q2VX0FC0 (D3R/Abbott, 2016)

Experiments:
[1] = target: T1, Heat shock protein HSP 90-beta (Homo sapiens, UniProt P08238); experiment: ITC
Source text: ITC

[2] = target: T1, Heat shock protein HSP 90-beta; experiment: Thermofluor Assay
Source text: Thermofluor Assay

T1 sequence (P08238 whole entry): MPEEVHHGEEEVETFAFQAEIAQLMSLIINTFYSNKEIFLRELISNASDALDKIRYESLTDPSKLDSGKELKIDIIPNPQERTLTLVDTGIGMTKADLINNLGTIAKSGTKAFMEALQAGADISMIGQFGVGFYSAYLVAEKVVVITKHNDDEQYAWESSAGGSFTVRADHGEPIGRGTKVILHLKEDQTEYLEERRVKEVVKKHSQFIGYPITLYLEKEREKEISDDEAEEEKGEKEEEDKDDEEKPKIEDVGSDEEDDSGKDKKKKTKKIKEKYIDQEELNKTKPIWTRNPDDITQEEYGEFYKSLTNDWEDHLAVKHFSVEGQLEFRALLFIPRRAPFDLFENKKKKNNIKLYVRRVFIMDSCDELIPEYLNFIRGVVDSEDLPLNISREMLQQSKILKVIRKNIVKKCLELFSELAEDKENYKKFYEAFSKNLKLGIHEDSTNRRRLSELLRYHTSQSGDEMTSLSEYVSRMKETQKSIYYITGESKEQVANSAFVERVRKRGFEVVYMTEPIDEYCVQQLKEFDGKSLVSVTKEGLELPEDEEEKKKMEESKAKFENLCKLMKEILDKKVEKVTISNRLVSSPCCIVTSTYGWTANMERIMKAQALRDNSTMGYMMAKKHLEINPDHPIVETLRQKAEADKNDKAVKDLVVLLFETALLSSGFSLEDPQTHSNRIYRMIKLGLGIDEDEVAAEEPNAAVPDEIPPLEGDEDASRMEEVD

Kd [1]	Kd [2]	Compound
11.5 µM	28.9 µM	O=C(c1cccc(O)c1)c1ccc(O)cc1O [Polyhydroxy benzophenone, 12]
	> 100 µM	CCCC(=O)c1cc(O)c(O)c(O)c1 [hsp90_151]
0.0107 µM	0.172 µM	O=c1[nH]c2cc(CNS(=O)(=O)c3ccccc3O)ccc2n1-c1cc(Cl)c(O)cc1O [hsp90_43]
3.06 µM		O=c1[nH]c2ccccc2n1-c1cc(-c2ccnc3ccccc23)c(O)cc1O [hsp90_23]
	2.25 µM	Nc1nc(Cl)c(/C=N/O)c(-c2ccc(Cl)cc2Cl)n1 [hsp90_87]
	> 100 µM	O=C(c1ccc(O)cc1O)c1ccc(O)c(O)c1O [Polyhydroxy benzophenone, 8]
	> 100 µM	COC(=O)c1cc(-n2c(=O)[nH]c3cc(C(F)(F)F)cc(Cl)c32)c(O)cc1OC [hsp90_13]
	265 µM	COc1ccc(-c2cc(-c3ccc(Cl)cc3Cl)nc(N)n2)c(OC)c1 [hsp90_84]
0.115 µM	0.225 µM	CC(C)c1ccc(S(=O)(=O)NCc2ccc3c(c2)[nH]c(=O)n3-c2cc(Cl)c(O)cc2O)cc1 [hsp90_38]
10.3 µM	0.993 µM	COc1cc(-c2cc(-n3c(=O)[nH]c4ccccc43)c(O)cc2O)cc(OC)c1OC [hsp90_24]
	11.2 µM	CCOC(=O)CO/N=C/c1c(Cl)nc(N)nc1-c1ccc(Cl)cc1Cl [hsp90_91]
54 µM	94.8 µM	O=c1[nH]c2ccccc2n1-c1cc(-c2cccnc2O)c(O)cc1O [hsp90_34]
1.48 µM	2.28 µM	COc1cccc(OC)c1-c1cc(C)nc(N)n1 [hsp90_70]
0.0686 µM	0.123 µM	CCCc1cc(-n2c(=O)[nH]c3ccccc32)c(O)cc1O [hsp90_12]
6.58 µM	4.58 µM	O=c1[nH]c2ccccc2n1-c1cc(-c2ccccc2O)c(O)cc1O [hsp90_10]
8.33 µM	7.51 µM	O=C(c1ccc(O)cc1)c1cc(Cl)ccc1O [hsp90_164]
0.069 µM	0.165 µM	CCc1cc(-n2c(=O)[nH]c3ccccc32)c(O)cc1O [hsp90_40]
	> 100 µM	CC1c2cc(-n3c(=O)[nH]c4ccccc43)c(O)cc2OC1(C)C (centres undefined) [hsp90_35]
	> 100 µM	CC(=O)Oc1ccc([N+](=O)[O-])c2ccccc12 [hsp90_165]
	> 100 µM	CC(=O)Oc1ccc2c(=O)c(Cc3ccccc3)c(C)oc2c1OC(C)=O [hsp90_174]
	> 100 µM	Cn1c2c([n+](C)c1CCl)C(=O)c1ccccc1C2=O [hsp90_128]
3.11 µM	10.6 µM	O=C(c1ccc(O)cc1)c1ccc(O)cc1O [hsp90_176]
64 µM	91 µM	Cc1cc(-n2nc(C(=O)NCC3COC(C)(C)O3)cc2C)nc(N)n1 (centres undefined) [hsp90_95]
	> 100 µM	Cc1cc(CNC(=O)N2CCN(S(C)(=O)=O)C2=O)nc(N)n1 [hsp90_120]
7.45 µM	20.4 µM	Nc1nc(N)nc(-c2ccccc2Cl)n1 [hsp90_179]
	> 100 µM	O=C(CCl)NCc1cc(C(=O)c2ccc(OCCO)c(Cl)c2Cl)cc(Cl)c1O [hsp90_171]
0.0268 µM	0.376 µM	O=c1[nH]c2cc(CNS(=O)(=O)c3cccnc3)ccc2n1-c1cc(Cl)c(O)cc1O [hsp90_44]
0.393 µM	4.53 µM	Cc1cc(-c2ccc([N+](=O)[O-])cc2Cl)nc(N)n1 [hsp90_73]
	> 100 µM	Nc1nc(-c2ccc(C(F)(F)F)cc2Cl)cc(-c2ccc(C(F)(F)F)cc2Cl)n1 [hsp90_77]
